Where a name gives a salt, the structure may show the parent alone.
System: N1E-115 neurons
Assay: LC-MS/MS identification of succinated proteins in N1E-115 neurons
Assay type: cell-based, mouse
Conditions: DMF-treated N1E-115 neurons
Method: N1E-115 cells (subclone N1E-115-1 neuroblastoma cells) were obtained from Sigma (08062511, St. Louis, MO). The cells were grown and expanded in non-differentiation medium (NDM): 90% DMEM (GibcoTM, Grand Island, NY) with 25 mM glucose, no pyruvate, 25 mM HEPES, 4 mM glutamine and 10% fetal bovine serum (FBS, Atlanta Biologicals, Atlanta, GA). At 80% confluence, the cells were differentiated into neurons in the presence of 2% FBS and 1.25% dimethyl sulfoxide in DMEM for 5 days. In addition to the assessment of the neuronal phenotype by light microscopy, the detection of synaptophysin protein levels was used to confirm successful differentiation. […] After gel extraction, the peptides were re-suspended in 1% acetic acid and analyzed on a DionexTM […] system (Thermo ScientificTM, Rockford, IL) coupled to an Orbitrap Velos ProTM mass spectrometer (Thermo ScientificTM, Rockford, IL). […] The data-dependent acquisition (DDA) data were analyzed using Proteome DiscovererTM 1.4 software with SEQUEST search engine against the uniprot_ref_mouse database (2014-10-03 version, 52,474 proteins) or uniprot_ref_rat database (2011-5-11 version, 39765 proteins) with Xcorr>1 validation (+2) and an allowance for 2 missed cleavages. […]

COC(=O)/C=C/C(=O)OC [DMF, dimethyl fumarate]
number of protein subunits modified by either DMF or MMF: 15

From patent US20260133203A1, “DETECTION OF FUMARATE-DERIVED MODIFICATION IN A TEST SAMPLE” (UNIVERSITY OF SOUTH CAROLINA, priority 2017, published 2026)
